We go through 1 compound from patent US20230107186A1, “COBICISTAT FOR PREVENTION AND/OR TREATMENT OF CORONAVIRUS INFECTIONS” (priority 2020, published 2023).

The test relates to S-protein. The class given is cell-based, SARS-CoV-2.

With `CC(C)c1nc(CN(C)C(=O)N[C@@H](CCN2CCOCC2)C(=O)N[C@H](CC[C@H](Cc2ccccc2)NC(=O)OCc2cncs2)Cc2ccccc2)cs1` [Cobicistat, 1,3-thiazol-5-ylmethyl [(2R,5R)-5-{[(2S)-2-({[(2-isopropyl-1,3-thiazol-4-yl)methyl](methyl)carbamoyl}amino)-4-(morpholin-4-yl)butanoyl]amino}-1,6-diphenylhexan-2-yl]carbamate], the S-protein levels result was “decreased” and the “concentration range with effect in western blot analysis” value lay within 5 to 10 µM.
